Data taken from patent publication US20220031740A1, “THERAPEUTIC USES OF ATOMIC QUANTUM CLUSTERS” (priority 2018, published 2022).

Legend:
E. Co/i = assay: E. coli survival with Ag5-AQC and DTT; assay type: cell-based; settings: DTT at 10 mM
Source text: The mechanism responsible is thought to be thiol oxidation. […] The opposite is also true, i.e. Ag5-AQCs rescue E. Co/i from DTT action as expected from to redox agents with opposed action.

[1] = test system: A549luc orthotopic lung tumour and mediastinal lymph node metastases; assay: A549luc orthotopic lung cancer model metastasizing to mediastinal lymph nodes; assay type: in vivo
Procedure: (a) Ag5-AQCs cause a reduction in tumour growth in mice with orthotopic brain cancer. Experimental groups: Ag5-AQCs (0.25 mg/kg) and control (no treatment). (b-d) Ag5-AQCs treatment causes a reduction in tumour growth in mice with orthotopic lung cancer. (b) Tumour growth measured in vivo by luminescence (IVIS® Spectrum). Black arrows represent treatment administration times in the study. (c) Luciferase activity quantification measured ex vivo in lung and in mediastinal lymph nodes. (d) Immunohistochemical staining of lung tumour (arrows indicate the tumour nodules). Experimental groups: CDDP (4 mg/kg), Ag5-AQCs (0.25 mg/kg) and control (no treatment). (e) Body weight over the whole experiment. […]
For Ag5-AQCs treatment, mice were divided into three groups (5 animals in each): the first group (control) underwent no treatment, the second group was treated with cisplatin (CDDP) (four single doses, 4 mg/kg) and the third group was treated with Ag5-AQCs (four single doses, 0.25 mg/kg). […] The lung and mediastinal lymph nodes were removed and luminescence was quantified per microgram of protein in body as described in Borrajo et al. (2016). […]
Another limiting factor in cancer treatment is the occurrence of metastasis. […] In this model the occurrence of metastasis to lymph nodes is well established and could be detected 13 days after the injection of tumour cells. […]

Nrf2 = Nrf2 location by immunofluorescence in HEK293 cells; assay type: cell-based, human; settings: HEK293, 30 minutes; Ag5-AQC IC50, NEM 100 μM

## O[C@H](CS)[C@H](O)CS (racemic) [DTT, Dithiothreitol]
E. Co/i
  E. coli survival, DTT alone: toxic for bacteria

## [NH2][Pt]([NH2])([Cl])[Cl] [CDDP, Cisplatin]
[1]; day 37, vs control mice
  luciferase activity in the primary tumour and in the mediastinal lymph nodes (ex vivo): significant reduction in luciferase activity
[1]; intravenously days 20, 22, 24, 26, CDDP 4 mg/kg, Ag5-AQC 0.25 mg/kg, 37 days, vs control
  tumour size in lung (in vivo bioluminescence): significant reduction in tumour size

## CCN1C(=O)C=CC1=O [NEM, N-ethylmaleimide]
Nrf2
  Nrf2 staining and nuclear location: increased the nuclear accumulation of Nrf2
